Measurements published in ChEMBL document CHEMBL3399937, “(18)F-AmBF3-MJ9: a novel radiofluorinated bombesin derivative for prostate cancer imaging” (Bioorg Med Chem, 2015).

Legend:
Settings in all cases: in vivo
[1] = Biodistribution in fat of NSG mouse xenografted with human PC-3 tumor at 0.37 to 0.74 MBq, iv after 1 hr by gamma counting analysis in presence of BAY86-7548; format: ADME, organism-based, Adipose tissue
Mus musculus [2] = test: Biodistribution in testis of NSG mouse xenografted with human PC-3 tumor at 0.37 to 0.74 MBq, iv after 1 hr by gamma counting analysis in presence of BAY86-7548; format: ADME, organism-based
Intestine [3] = test: Biodistribution in intestine of NSG mouse xenografted with human PC-3 tumor at 0.37 to 0.74 MBq, iv after 1 hr by gamma counting analysis in presence of BAY86-7548; format: ADME, organism-based
Liver = test: Biodistribution in liver of NSG mouse xenografted with human PC-3 tumor at 0.37 to 0.74 MBq, iv after 1 hr by gamma counting analysis in presence of BAY86-7548; format: ADME, organism-based
Pancreas [4] = test: Biodistribution in pancreas of NSG mouse xenografted with human PC-3 tumor at 0.37 to 0.74 MBq, iv after 1 hr by gamma counting analysis in presence of BAY86-7548; format: ADME, organism-based
Kidney [5] = test: Biodistribution in kidney of NSG mouse xenografted with human PC-3 tumor at 0.37 to 0.74 MBq, iv after 1 hr by gamma counting analysis in presence of BAY86-7548; format: ADME, organism-based
Heart [6] = test: Biodistribution in heart of NSG mouse xenografted with human PC-3 tumor at 0.37 to 0.74 MBq, iv after 1 hr by gamma counting analysis in presence of BAY86-7548; format: ADME, organism-based
Bone [7] = test: Biodistribution in bone of NSG mouse xenografted with human PC-3 tumor at 0.37 to 0.74 MBq, iv after 1 hr by gamma counting analysis in presence of BAY86-7548; format: ADME, organism-based, Bone element
Brain [8] = test: Biodistribution in brain of NSG mouse xenografted with human PC-3 tumor at 0.37 to 0.74 MBq, iv after 1 hr by gamma counting analysis in presence of BAY86-7548; format: ADME, organism-based
Blood [9] = test: Biodistribution in blood of NSG mouse xenografted with human PC-3 tumor at 0.37 to 0.74 MBq, iv after 2 hrs by gamma counting analysis; format: ADME, organism-based
[10] = Biodistribution in fat of NSG mouse xenografted with human PC-3 tumor at 0.37 to 0.74 MBq, iv after 2 hrs by gamma counting analysis; format: ADME, organism-based, Adipose tissue
Spleen [11] = test: Biodistribution in spleen of NSG mouse xenografted with human PC-3 tumor at 0.37 to 0.74 MBq, iv after 2 hrs by gamma counting analysis; format: ADME, organism-based
Kidney [12] = test: Biodistribution in kidney of NSG mouse xenografted with human PC-3 tumor at 0.37 to 0.74 MBq, iv after 2 hrs by gamma counting analysis; format: ADME, organism-based
Muscle tissue [13] = test: Biodistribution in muscle of NSG mouse xenografted with human PC-3 tumor at 0.37 to 0.74 MBq, iv after 2 hrs by gamma counting analysis; format: ADME, organism-based
Bone [14] = test: Biodistribution in bone of NSG mouse xenografted with human PC-3 tumor at 0.37 to 0.74 MBq, iv after 2 hrs by gamma counting analysis; format: ADME, organism-based, Bone element
Brain [15] = test: Biodistribution in brain of NSG mouse xenografted with human PC-3 tumor at 0.37 to 0.74 MBq, iv after 2 hrs by gamma counting analysis; format: ADME, organism-based
Blood [16] = test: Biodistribution in blood of NSG mouse xenografted with human PC-3 tumor at 0.37 to 0.74 MBq, iv after 0.5 hrs by gamma counting analysis; format: ADME, organism-based
[17] = Biodistribution in fat of NSG mouse xenografted with human PC-3 tumor at 0.37 to 0.74 MBq, iv after 0.5 hrs by gamma counting analysis; format: ADME, organism-based, Adipose tissue
Mus musculus [18] = test: Biodistribution in seminal gland of NSG mouse xenografted with human PC-3 tumor at 0.37 to 0.74 MBq, iv after 0.5 hrs by gamma counting analysis; format: ADME, organism-based
Intestine [19] = test: Biodistribution in intestine of NSG mouse xenografted with human PC-3 tumor at 0.37 to 0.74 MBq, iv after 0.5 hrs by gamma counting analysis; format: ADME, organism-based
Spleen [20] = test: Biodistribution in spleen of NSG mouse xenografted with human PC-3 tumor at 0.37 to 0.74 MBq, iv after 0.5 hrs by gamma counting analysis; format: ADME, organism-based
Kidney [21] = test: Biodistribution in kidney of NSG mouse xenografted with human PC-3 tumor at 0.37 to 0.74 MBq, iv after 0.5 hrs by gamma counting analysis; format: ADME, organism-based
Tumour [22] = test: Biodistribution in tumor of NSG mouse xenografted with human PC-3 tumor at 0.37 to 0.74 MBq, iv after 0.5 hrs by gamma counting analysis; format: ADME, organism-based, Neoplasm
Bone [23] = test: Biodistribution in bone of NSG mouse xenografted with human PC-3 tumor at 0.37 to 0.74 MBq, iv after 0.5 hrs by gamma counting analysis; format: ADME, organism-based, Bone element
[24] = Biodistribution in fat of NSG mouse xenografted with human PC-3 tumor at 0.37 to 0.74 MBq, iv after 1 hr by gamma counting analysis; format: ADME, organism-based, Adipose tissue
Mus musculus [25] = test: Biodistribution in seminal gland of NSG mouse xenografted with human PC-3 tumor at 0.37 to 0.74 MBq, iv after 1 hr by gamma counting analysis; format: ADME, organism-based
Mus musculus [26] = test: Biodistribution in testis of NSG mouse xenografted with human PC-3 tumor at 0.37 to 0.74 MBq, iv after 1 hr by gamma counting analysis; format: ADME, organism-based
Intestine [27] = test: Biodistribution in intestine of NSG mouse xenografted with human PC-3 tumor at 0.37 to 0.74 MBq, iv after 1 hr by gamma counting analysis; format: ADME, organism-based
Spleen [28] = test: Biodistribution in spleen of NSG mouse xenografted with human PC-3 tumor at 0.37 to 0.74 MBq, iv after 1 hr by gamma counting analysis; format: ADME, organism-based
Pancreas [29] = test: Biodistribution in pancreas of NSG mouse xenografted with human PC-3 tumor at 0.37 to 0.74 MBq, iv after 1 hr by gamma counting analysis; format: ADME, organism-based
Mus musculus [30] = test: Biodistribution in adrenal gland of NSG mouse xenografted with human PC-3 tumor at 0.37 to 0.74 MBq, iv after 1 hr by gamma counting analysis; format: ADME, organism-based
Lung = test: Biodistribution in lung of NSG mouse xenografted with human PC-3 tumor at 0.37 to 0.74 MBq, iv after 1 hr by gamma counting analysis; format: ADME, organism-based
Heart [31] = test: Biodistribution in heart of NSG mouse xenografted with human PC-3 tumor at 0.37 to 0.74 MBq, iv after 1 hr by gamma counting analysis; format: ADME, organism-based
Tumour [32] = test: Biodistribution in tumor of NSG mouse xenografted with human PC-3 tumor at 0.37 to 0.74 MBq, iv after 1 hr by gamma counting analysis; format: ADME, organism-based, Neoplasm
Muscle tissue [33] = test: Biodistribution in muscle of NSG mouse xenografted with human PC-3 tumor at 0.37 to 0.74 MBq, iv after 1 hr by gamma counting analysis; format: ADME, organism-based
Bone [34] = test: Biodistribution in bone of NSG mouse xenografted with human PC-3 tumor at 0.37 to 0.74 MBq, iv after 1 hr by gamma counting analysis; format: ADME, organism-based, Bone element
Brain [35] = test: Biodistribution in brain of NSG mouse xenografted with human PC-3 tumor at 0.37 to 0.74 MBq, iv after 1 hr by gamma counting analysis; format: ADME, organism-based

CC(C)C[C@H](NC(=O)C[C@H](O)[C@H](CC(C)C)NC(=O)[C@H](Cc1cnc[nH]1)NC(=O)CNC(=O)[C@@H](NC(=O)[C@H](C)NC(=O)[C@H](Cc1c[nH]c2ccccc12)NC(=O)[C@H](CCC(N)=O)NC(=O)[C@@H](Cc1ccccc1)NC(=O)CN1CCC(NC(=O)Cn2cc(C[N+](C)(C)C[B-](F)(F)[17F])nn2)CC1)C(C)C)C(N)=O
Drug uptake [1]: 0.12 % ID/g | Drug uptake (Mus musculus [2]): 0.25 % ID/g | Drug uptake (Intestine [3]): 0.25 % ID/g | Drug uptake (Liver): 1.05 % ID/g | Drug uptake (Pancreas [4]): 0.42 % ID/g | Drug uptake (Kidney [5]): 6.66 % ID/g | Drug uptake (Heart [6]): 0.18 % ID/g | Drug uptake (Bone [7]): 0.25 % ID/g | Drug uptake (Brain [8]): 0.03 % ID/g | Drug uptake (Blood [9]): 0.32 % ID/g | Drug uptake [10]: 0.05 % ID/g | Drug uptake (Spleen [11]): 0.26 % ID/g | Drug uptake (Kidney [12]): 1.46 % ID/g | Drug uptake (Muscle tissue [13]): 0.03 % ID/g | Drug uptake (Bone [14]): 0.18 % ID/g | Drug uptake (Brain [15]): 0.01 % ID/g | Drug uptake (Blood [16]): 2.1 % ID/g | Drug uptake [17]: 0.25 % ID/g | Drug uptake (Mus musculus [18]): 0.33 % ID/g | Drug uptake (Intestine [19]): 4.28 % ID/g | Drug uptake (Spleen [20]): 1.08 % ID/g | Drug uptake (Kidney [21]): 6.6 % ID/g | Drug uptake (Tumour [22]): 2.77 % ID/g | Drug uptake (Bone [23]): 0.7 % ID/g | Drug uptake [24]: 0.07 % ID/g | Drug uptake (Mus musculus [25]): 0.7 % ID/g | Drug uptake (Mus musculus [26]): 0.25 % ID/g | Drug uptake (Intestine [27]): 6.3 % ID/g | Drug uptake (Spleen [28]): 0.33 % ID/g | Drug uptake (Pancreas [29]): 4.16 % ID/g | Drug uptake (Mus musculus [30]): 0.5 % ID/g | Drug uptake (Lung): 0.96 % ID/g | Drug uptake (Heart [31]): 0.13 % ID/g | Drug uptake (Tumour [32]): 1.47 % ID/g | Drug uptake (Muscle tissue [33]): 0.07 % ID/g | Drug uptake (Bone [34]): 0.28 % ID/g | Drug uptake (Brain [35]): 0.02 % ID/g
